Seven compounds from article PMC6199744, “Development of Chemical Proteomics for the Folateome and Analysis of the Kinetoplastid Folateome” (ACS Infectious Diseases, 2018) can be followed below.

Read-outs that look alike come from different tables or passages of the source.

Holding throughout (assay type): binding
Assay [1] addresses T1, HeLa cell extract proteins (Homo sapiens, UniProt Q12931).
T1 construct: endogenous in cells; host or cells: HeLa cell extract
T1 sequence (Q12931 60-704): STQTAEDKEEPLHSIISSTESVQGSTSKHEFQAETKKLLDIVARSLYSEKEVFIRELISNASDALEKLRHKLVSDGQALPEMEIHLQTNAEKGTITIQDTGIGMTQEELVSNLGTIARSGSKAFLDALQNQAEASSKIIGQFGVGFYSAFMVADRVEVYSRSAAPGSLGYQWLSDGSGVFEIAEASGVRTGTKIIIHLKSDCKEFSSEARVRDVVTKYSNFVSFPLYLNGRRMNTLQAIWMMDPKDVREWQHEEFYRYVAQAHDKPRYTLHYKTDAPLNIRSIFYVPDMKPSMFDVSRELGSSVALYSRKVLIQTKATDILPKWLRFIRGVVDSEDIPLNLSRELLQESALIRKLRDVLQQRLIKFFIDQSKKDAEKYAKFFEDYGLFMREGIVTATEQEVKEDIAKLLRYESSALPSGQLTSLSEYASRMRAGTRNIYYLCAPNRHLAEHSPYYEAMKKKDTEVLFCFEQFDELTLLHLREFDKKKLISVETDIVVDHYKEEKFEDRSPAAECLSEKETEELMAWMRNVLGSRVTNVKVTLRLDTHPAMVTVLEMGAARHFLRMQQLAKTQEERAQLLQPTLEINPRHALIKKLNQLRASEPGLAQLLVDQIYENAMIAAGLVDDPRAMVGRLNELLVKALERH

Assay [2] has as its target T2, HeLa cell extract proteins (Homo sapiens, UniProt P49915).
T2 construct: endogenous in cells; host or cells: HeLa cell extract

Assay [3] addresses T3, HeLa cell extract proteins (Homo sapiens, UniProt P22102).
T3 construct: endogenous in cells; host or cells: HeLa cell extract
T3 sequence (P22102 1-1010): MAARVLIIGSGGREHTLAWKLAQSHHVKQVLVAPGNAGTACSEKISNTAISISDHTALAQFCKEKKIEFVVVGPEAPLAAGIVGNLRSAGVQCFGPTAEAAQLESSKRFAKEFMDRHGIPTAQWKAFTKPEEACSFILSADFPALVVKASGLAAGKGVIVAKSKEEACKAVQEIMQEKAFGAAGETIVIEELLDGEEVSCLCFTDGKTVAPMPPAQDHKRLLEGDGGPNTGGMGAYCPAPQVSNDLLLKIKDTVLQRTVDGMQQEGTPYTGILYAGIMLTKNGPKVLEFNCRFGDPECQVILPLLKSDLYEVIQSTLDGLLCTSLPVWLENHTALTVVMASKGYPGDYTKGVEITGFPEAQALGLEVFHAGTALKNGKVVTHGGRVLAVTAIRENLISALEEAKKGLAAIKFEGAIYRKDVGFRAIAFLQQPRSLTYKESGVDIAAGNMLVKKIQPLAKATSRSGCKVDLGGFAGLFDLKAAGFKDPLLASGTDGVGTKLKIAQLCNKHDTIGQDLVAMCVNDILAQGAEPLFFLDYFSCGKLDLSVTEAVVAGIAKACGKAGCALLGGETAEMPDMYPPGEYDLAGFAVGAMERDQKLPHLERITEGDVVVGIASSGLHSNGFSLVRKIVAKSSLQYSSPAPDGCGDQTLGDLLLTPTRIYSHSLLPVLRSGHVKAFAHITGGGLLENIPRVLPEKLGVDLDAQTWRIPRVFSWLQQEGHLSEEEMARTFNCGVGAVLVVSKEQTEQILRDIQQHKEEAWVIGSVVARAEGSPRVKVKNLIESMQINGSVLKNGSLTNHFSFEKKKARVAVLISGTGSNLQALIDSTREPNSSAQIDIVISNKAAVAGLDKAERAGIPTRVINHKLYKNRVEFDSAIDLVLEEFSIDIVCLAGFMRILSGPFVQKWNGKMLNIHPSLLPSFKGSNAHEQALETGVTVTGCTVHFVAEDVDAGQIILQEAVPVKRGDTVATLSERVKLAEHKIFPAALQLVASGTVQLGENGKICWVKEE

The target in assay [4] is T4, HeLa cell extract proteins (Homo sapiens, UniProt P04040).
T4 construct: endogenous in cells; host or cells: HeLa cell extract
T4 sequence (P04040 1-527): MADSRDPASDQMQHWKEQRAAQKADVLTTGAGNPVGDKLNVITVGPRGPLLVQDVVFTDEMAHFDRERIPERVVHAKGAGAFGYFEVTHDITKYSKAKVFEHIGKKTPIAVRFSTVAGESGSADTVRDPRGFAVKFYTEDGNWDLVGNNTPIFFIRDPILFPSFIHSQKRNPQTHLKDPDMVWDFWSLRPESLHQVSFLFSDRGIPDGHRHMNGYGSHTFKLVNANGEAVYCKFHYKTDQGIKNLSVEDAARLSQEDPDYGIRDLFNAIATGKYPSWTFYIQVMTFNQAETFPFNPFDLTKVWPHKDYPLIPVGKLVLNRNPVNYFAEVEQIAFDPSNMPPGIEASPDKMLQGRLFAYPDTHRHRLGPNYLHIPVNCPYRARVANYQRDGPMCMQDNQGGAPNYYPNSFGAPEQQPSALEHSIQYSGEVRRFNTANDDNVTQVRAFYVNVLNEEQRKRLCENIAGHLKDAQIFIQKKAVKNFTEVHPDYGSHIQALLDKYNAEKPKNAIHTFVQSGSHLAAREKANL

T2 sequence (P49915 whole entry): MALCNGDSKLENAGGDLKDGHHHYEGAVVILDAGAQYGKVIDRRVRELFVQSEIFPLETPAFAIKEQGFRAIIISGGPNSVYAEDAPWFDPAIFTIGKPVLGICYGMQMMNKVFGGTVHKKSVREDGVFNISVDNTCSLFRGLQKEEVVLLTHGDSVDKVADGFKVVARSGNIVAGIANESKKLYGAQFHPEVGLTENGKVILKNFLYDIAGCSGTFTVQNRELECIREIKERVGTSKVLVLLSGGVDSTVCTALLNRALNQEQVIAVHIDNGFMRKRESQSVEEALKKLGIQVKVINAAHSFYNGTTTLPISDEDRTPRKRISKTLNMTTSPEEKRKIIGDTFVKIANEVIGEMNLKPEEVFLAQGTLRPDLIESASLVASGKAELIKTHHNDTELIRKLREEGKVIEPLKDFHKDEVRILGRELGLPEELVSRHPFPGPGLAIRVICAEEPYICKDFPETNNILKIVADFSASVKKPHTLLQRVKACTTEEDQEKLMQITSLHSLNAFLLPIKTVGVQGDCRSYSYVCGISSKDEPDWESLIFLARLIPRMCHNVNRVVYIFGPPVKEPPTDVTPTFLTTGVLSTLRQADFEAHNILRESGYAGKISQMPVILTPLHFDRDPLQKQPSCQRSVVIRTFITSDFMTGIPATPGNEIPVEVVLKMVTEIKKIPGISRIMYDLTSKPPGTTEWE

For the compound `Nc1nc2cccc(-c3ccccc3)c2n1Cc1ccc(Cl)c(Cl)c1` [compound 3], the “fold changes relative to vehicle control” value came to 1.06 in assay [1] (protein TRAP1, HeLa); 0.96 in assay [2] (protein GMPS, HeLa); 1.1 in assay [3] (captured protein GART, HeLa); 0.78 in assay [4] (captured protein CAT, HeLa).

`NCCOCCOCC(=O)Nc1nc2ncc(CNc3ccc(C(=O)NC(CCC(=O)O)C(=O)O)cc3)nc2c(=O)[nH]1` (stereo not shown) [compound 6]: the “fold changes relative to vehicle control” value in assay [1] (protein TRAP1, HeLa) worked out at 1.2; in assay [2] (HeLa, protein GMPS) it was 1.24; in assay [3] (protein GART, HeLa), 0.72; in assay [4] (protein CAT, HeLa), 0.94.

Take `Nc1nc2[nH]cc(CCc3ccc(C(=O)N[C@@H](CCC(=O)O)C(=O)O)cc3)c2c(=O)[nH]1` [PTX, pemetrexed]: the “fold changes relative to vehicle control” value in assay [1] worked out at 1.02; in assay [2], 0.99; in assay [3] it was 0.43; in assay [4] it was 0.88.

As for `Nc1nc2c(c(=O)[nH]1)N(C=O)C(CNc1ccc(C(=O)N[C@@H](CCC(=O)O)C(=O)O)cc1)CN2` (stereo partly shown) [LEU, leucovorin], the “fold changes relative to vehicle control” value is 0.95 in assay [1] (protein TRAP1, HeLa); 0.93 in assay [2] (HeLa, protein GMPS); 0.66 in assay [3] (protein GART, HeLa); 0.87 in assay [4] (protein CAT, HeLa).

Regarding `CCCCCCOc1ccc(Cc2cnc(N)nc2N)cc1` [compound 1], the “fold changes relative to vehicle control” value was 1.27 in assay [1] (protein TRAP1, HeLa); 1.37 in assay [2] (protein GMPS, HeLa); 0.94 in assay [3] (captured protein GART, HeLa); 0.77 in assay [4] (captured protein CAT, HeLa).

On to `NCCCNc1ccc(C(=O)NC(CCC(=O)O)C(=O)O)cc1` (stereo not shown) [compound 7], for which the “fold changes relative to vehicle control” value in assay [1] (protein TRAP1, HeLa) is 1.01; in assay [2] (HeLa, protein GMPS), 1.11; in assay [3] (protein GART, HeLa), 1.14; in assay [4] (protein CAT, HeLa), 1.39.

Regarding `CCCCCCOc1cccc(Cc2cnc(N)nc2N)c1` [compound 2], the “fold changes relative to vehicle control” value in assay [1] (protein TRAP1, HeLa) is 1.77; in assay [2] (protein GMPS, HeLa) it was 1.94; in assay [3] (captured protein GART, HeLa), 1.03; in assay [4] (captured protein CAT, HeLa), 1.03.
